The results in this text go back to patent publication EP4537820A1, “COMPOUND AND COMBINATIONS COMPRISING SAID COMPOUND TO IMPROVE IMMUNE RESPONSE” (Institut Gustave-Roussy, priority 2023, dated 2025).

Each structure is given as a SMILES string.

One assay concerns T1, 20S proteasome.
T1 construct: purified 20S proteasome from human erythrocytes; purchased Biotechne E-360-050; host or cells: human erythrocytes
The assay can be described thus: Second confirmatory counter-screen of hits on the proteasome alone. Format: biochemical, human. To be noted: counter-screen on 20S proteasome only, without REGγ. The method, then: The 3 chemical libraries tested were obtained from the NIH : The Natural Products set (NP.V) consisting of 390 compounds, the Oncology Approved Drugs set (AOD.IX) consisting of 147 FDA-approved compounds and the Diversity set (DIV.VI) consisting of 1584 compounds. Libraries were prepared and screened with a Biomek FXP workstation in 384 well plates. Compounds activity was assessed using a fluorescence activity test of the proteasome using the Bz-VGR-AMC fluorogenic substrate (#BML-BW9375-0005, Enzo Life Sciences). 50µM of the fluorogenic substrate was used with 20µM of the tested compound, and 2nM of 20S human proteasome (#E-360-050, Biotechne) in presence or absence of 50nM of human REGγ (#E-384-MTO, Biotechne). After preparation of the mix, plates were incubated for 2h at 37°C before being read on a Spectramax i3 microplate reader from Molecular devices (Excitation wavelength : 345nm; Emission wavelength : 445nm). […]
Using the control condition without REGγ, they then eliminated compounds that were inhibiting the 20S proteasome, using the 95% interval of confidence of the 20S control for each plate. […] Fluorescence was measured every minute with a FLUOstar plate reader (BMG Labtech). […]
After conducting the screening and validating the quality control using a custom algorithm, they analyzed the data to select their hits. […]

The next assay has as its target T2, 20S-REGγ proteasome (Homo sapiens, UniProt P61289).
T2 construct: made in house
As to the kind of experiment: Proteasome Activity Assay with fluorogenic AMC substrates, in presence of REGγ. The class given is biochemical. Particulars: 0.5nM human 20S + 12.5nM human REGγ. The method, then:
Proteasome Activity Assay - The activity of the 20S and 20S-REGγ proteasomes was followed by fluorescence using the Bz-VGR-AMC (#BML-BW9375-0005, Enzo Life Sciences) substrate at 50µM for tryspin-like activity, the Suc-LLVY-AMC (#BML-P802-0005, Enzo Life Sciences) substrate at 100µM for the chemotrypsin-like activity and the Z-LLE-AMC (#BML-ZW9345-0005, Enzo Life Sciences) substrate at 100µM for the caspase-like activity. Substrates were incubated with 0,5nM of human 20S ((#E-360-050, Biotechne) and 12,5nM of human REGγ or 2nM of human REGαβ with or without compounds at different concentrations. Purified human REGγ and REGGαβ were generously provided by Julien Marcoux and Marie-Pierre Bousquet-Dubouch. Human REGγ and REGαβ were purified according to Le Feuvre et al., 2009 from plasmids kindly provided by Olivier Coux. The activity assay was performed in 96 well plates in a final volume of 80µL. Plates were read every minute for 90 minutes with a FLUOstar plate reader (BMG Labtech). To detect fluorescence, the excitation wavelength was set to 355nm and emission wavelength at 460nm.
The activity of the 20S and 20S-REGγ proteasomes was followed by fluorescence using the Bz-VGR-AMC (#BML-BW9375-0005, Enzo Life Sciences) substrate at 50µM for trypsin-like activity, the Suc-LLVY-AMC (#BML-P802-0005, Enzo Life Sciences) substrate at 100µM for the chemotrypsin-like activity and the Z-LLE-AMC (#BML-ZW9345-0005, Enzo Life Sciences) substrate at 100µM for the caspase-like activity. […]

T2 sequence (P61289 whole entry): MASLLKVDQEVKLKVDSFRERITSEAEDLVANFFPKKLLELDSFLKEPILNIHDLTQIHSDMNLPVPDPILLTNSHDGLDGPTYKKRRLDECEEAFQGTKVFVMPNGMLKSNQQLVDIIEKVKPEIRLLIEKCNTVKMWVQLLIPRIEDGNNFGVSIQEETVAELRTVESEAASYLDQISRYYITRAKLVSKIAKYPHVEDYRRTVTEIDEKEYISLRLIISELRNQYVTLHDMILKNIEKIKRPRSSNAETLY

Take `Cc1ccc(N=Nc2ccc(C)cc2NC(=O)Nc2ccccc2F)cc1` [compound 58]: the “inhibition of the 20S core alone” value in the assay with 20S proteasome is on record as “without inhibiting the 20S core alone”. In addition, on 20S-REGγ proteasome (Bz-VGR-AMC 50µM, stronger effect at 100 µM), the “concentration at which inhibition of trypsin-like activity starts” value stood at 50 µM. In addition, the “concentration at which chymotrypsin-like activity is inhibited” value on 20S-REGγ proteasome (Suc-LLVY-AMC 100µM, inhibited only at this concentration) was determined as 100 µM. At 20S-REGγ proteasome (Z-LLE-AMC 100µM, stronger effect at 100 µM), the “concentration at which inhibition of caspase-like activity starts” value turned out to be 50 µM.
